# Measurements reported in patent US20230085945A1, “ORTHOGONAL SAFETY SWITCHES TO ELIMINATE GENETICALLY ENGINEERED CELLS” (The Board of Trustees of the Leland Stanford Junior …, priority 2020, published 2023).
# Experiments:
# [1] = tested on: undifferentiated NANOG^iCasp9-YFP hPSCs; experiment: Viability of undifferentiated NANOG^iCasp9-YFP hPSCs after AP20187 (FACS, alamar blue; dose and time course); format: cell-based, human
# Experimental: FIG. 9: Efficacy of the NANOG^iCasp9-YFP safety switch (related to FIG. 3). A) Undifferentiated NANOG^iCasp9-YFP hPSCs were treated with AP20187 at the indicated concentrations for 24 hours, and then the percentage of viable remaining cells was subsequently analyzed using FACS analysis (left) and alamar blue staining (right). For the FACS analysis, the percentage of cells shown represents viable cells (i.e., DAPI-negative cells obtained after DAPI staining) that were then gated for YFP+ (i.e., NANOG^+) cells. For the alamar blue analysis, wild-type hPSCs were used as a negative control. […] AP20187 doses equal to or greater than 100 nM may prevent efficient killing of NANOG^iCasp9-YFP hPSCs by considerably downregulating NANOG. Gene expression is depicted normalized to the reference gene YWHAZ (i.e., YWHAZ=1.0). C) Undifferentiated NANOG^iCasp9-YFP hPSCs were treated with the indicated doses of AP20187 for various lengths of time (6, 12, 24, 48, 72 hours) and then alamar blue assay was performed immediately thereafter to quantify the extent of cell death. […] D) Immunofluorescent imaging of NANOG^iCasp9-YFP hESCs in the undifferentiated state and after differentiation into day 6 sclerotome as marked by TWIST1 expression, both without and with treatment of cells with 1 nM AP20187 for 24 hours. […] The following marker genes were assessed in each respective cell-type: sclerotome (bone) progenitors (TWIST1, SOX9, PAX1, PAX9), liver progenitors (SOX17, HNF4A, AFP, TBX3), and forebrain (neural) progenitors (PAX6, FOXG1, OTX2, SIX3). F) Further validation of NANOG^iCasp9-YFP using a simulated mixed cell culture assay. NANOG^iCasp9-YFP undifferentiated hPSCs and hPSC-derived derived sclerotome cells were mixed at a 3:7 ratio, respectively. Mixed cells were treated with AP20187, and 24 hours post-treatment, FACS analysis was done to assess remaining NANOG^iCasp9-YFP hPSCs in culture.
# Alamar Blue proliferation assay—hESCs were cultured in mTeSR1 (in the presence or absence of AP20187 at the indicated concentrations). After 24 hours of AP20187 treatment, mTeSR1 media with Alamar Blue (concentration based on manufacturer's protocol) was changed for both untreated and treated samples. A control well containing media+Alamar Blue was used to assess blank wells and to therefore to measure and subtract fluorescence noise.
# Flow cytometric quantification of viable cells—NANOG^iCasp9-YFP hESCs were dissociated into single cells with Accutase and 1×10^6 cells were plated per well in a 6-well plate pre-coated with Matrigel. […] Subsequently, to quantify the percentage of surviving cells, the cultures were dissociated with TrypLE Express. […] YFP^+ (i.e., NANOG^+) cells were analyzed (Beckman Coulter CytoFlex Analyzer) to count live cells for both untreated and AP20187-treated groups. […]
# [2] = tested on: NANOG^iCasp9-YFP hPSC-derived day-6 liver progenitors, bone progenitors and forebrain progenitors; experiment: Survival of differentiated hPSC-derived tissue progenitors after AP20; format: cell-based, human; details: 24-hour AP20 treatment
# Experimental: FIG. 3: Implementation of the NANOG^iCasp9-YFP safety switch. A) Schema depicting how drug AP20187 induces dimerization of Caspase9 in undifferentiated NANOG^iCasp9-YFP hESCs, subsequently triggering cell death (top left). NANOG^iCasp9-YFP hESCs were treated for 24 hours with increasing concentrations of AP20187. AP20187 was withdrawn, and cultures were further grown in mTeSR1 to allow any surviving hESCs to grow; any surviving colonies were counted 1 week later (top right). Alkaline phosphatase staining of whole wells of a 12-well plate after 24-hour treatment with AP20187 (bottom). […] Bioluminescent imaging of mice occurred weekly for 5 weeks with no transplant control (NTC) animals included for relative luminescence normalization. Total flux (photons/sec) was measured for each animal and averaged. […] The percentage of surviving cells was calculated relative to untreated controls. […]
# Cell count assay—hESCs were dissociated with EDTA and 5×10^5 cells were plated per well of a 6-well plate that was pre-coated with Matrigel. […] Subsequently, cells were dissociated and the number of viable cells were counted using the Bio-Rad TC20™ Automated Cell Counter (trypan blue exclusion). […]
smiles,measurement,setting,value
CC[C@H](C(=O)N1CCCC[C@H]1C(=O)O[C@H](CCc1ccc(OC)c(OC)c1)c1cccc(OCC(=O)NCC(CNC(=O)COc2cccc([C@@H](CCc3ccc(OC)c(OC)c3)OC(=O)[C@@H]3CCCCN3C(=O)[C@@H](CC)c3cc(OC)c(OC)c(OC)c3)c2)CN(C)C)c1)c1cc(OC)c(OC)c(OC)c1 [AP20],concentration that activates the NANOG^iCasp9-YFP system,[1],1 nM
same,duration of treatment that sufficed to eliminate hESCs,[1],12 h
same,time to activity / cell death,[1]; 1 nM AP20187,≤ 12 h
same,IC50,[1]; undifferentiated NANOG^iCasp9-YFP hPSCs,0.065 nM
same,differentiated progenitors spared / remaining viable,[2],> 95%
